According to the NIST ThermoML archive (doi:10.1021/je4004542):
Values joined by “and” are separate entries in the source; they are usually repeats but may differ in a detail not shown here. Equal values may be shown once.

Details: for mass density: Liquid, isochoric method; for surface tension liquid-gas: Ring tensiometer

CC(F)(F)CC(F)(F)F [1,1,1,3,3-pentafluorobutane]
Details | mass density [kg/m3]
237.49 K, 3052.4 kPa | 1382.79
238.27 K, 4040.1 kPa | 1382.71
239.08 K, 5074 kPa | 1382.22
239.08 K, 5081.7 kPa | 1382.63
243.12 K, 10185 kPa | 1382.22
247.08 K, 15188 kPa | 1381.81
247.43 K, 956.6 kPa | 1361.21
248.25 K, 1931.8 kPa | 1361.13
249.22 K, 3081.2 kPa | 1361.03
250.2 K, 4243.7 kPa | 1360.94
250.92 K, 19991 kPa | 1381.43
250.93 K, 5088.8 kPa | 1360.86
255 K, 25056 kPa | 1381.02
255.26 K, 10152 kPa | 1360.44
258.99 K, 29998 kPa | 1380.62
259.5 K, 15102 kPa | 1360.02
260.21 K, 1298.1 kPa | 1336.72
261.05 K, 2152.9 kPa | 1336.64
261.98 K, 3278.8 kPa | 1336.55
262.73 K, 4030.2 kPa | 1336.48
262.97 K, 34873 kPa | 1380.23
263.72 K, 19989 kPa | 1359.61
263.74 K, 5132.2 kPa | 1336.38
267.12 K, 39916 kPa | 1379.82
268.05 K, 24964 kPa | 1359.2
268.32 K, 10033 kPa | 1335.95
272.35 K, 29861 kPa | 1358.79
273.08 K, 15145 kPa | 1335.5
273.72 K, 1076.8 kPa | 1309.97
274.73 K, 2060 kPa | 1309.88
275.63 K, 2942.2 kPa | 1309.8
276.61 K, 3921.9 kPa | 1309.71
276.83 K, 34914 kPa | 1358.36
277.65 K, 4903.9 kPa | 1309.61
277.66 K, 19995 kPa | 1335.08
281.43 K, 40068 kPa | 1357.92
282.34 K, 24894 kPa | 1334.64
282.69 K, 10162 kPa | 1310.01
287.06 K, 29792 kPa | 1334.21
287.75 K, 1242 kPa | 1280.22
287.79 K, 15107 kPa | 1309.56
288.9 K, 2019.2 kPa | 1280.13
290.22 K, 3193 kPa | 1280.01
291.35 K, 4070.9 kPa | 1279.92
292.09 K, 35022 kPa | 1333.75
292.96 K, 5455.1 kPa | 1279.78
292.96 K, 20092 kPa | 1309.09
296.9 K, 39956 kPa | 1333.31
297.78 K, 24667 kPa | 1308.67
298.16 K, 10021 kPa | 1279.33
298.57 K, 1157.4 kPa | 1258.72
299.69 K, 2006.3 kPa | 1258.62
301.02 K, 3084.3 kPa | 1258.51
302.24 K, 4081.3 kPa | 1258.41
303.22 K, 29830 kPa | 1308.18
303.47 K, 5080.2 kPa | 1258.31
303.85 K, 15147 kPa | 1278.84
308.65 K, 34947 kPa | 1307.7
309.5 K, 20037 kPa | 1278.36
309.51 K, 9974.6 kPa | 1257.8
309.96 K, 1066.8 kPa | 1234.65
311.31 K, 2069.7 kPa | 1234.54
312.57 K, 3017.8 kPa | 1234.43
313.89 K, 4006.1 kPa | 1234.33
314.06 K, 40001 kPa | 1307.23
315.23 K, 5013.4 kPa | 1234.22
315.28 K, 25013 kPa | 1277.86
315.8 K, 15053 kPa | 1257.28
321.09 K, 29987 kPa | 1277.37
322.04 K, 20055 kPa | 1256.76
322.05 K, 10082 kPa | 1233.67
322.3 K, 1278.8 kPa | 1207.34
323.48 K, 1919.7 kPa | 1207.25
325.25 K, 3125.1 kPa | 1207.12
326.62 K, 4057.4 kPa | 1207.01
326.99 K, 34967 kPa | 1276.87
327.9 K, 4926.1 kPa | 1206.91
328.32 K, 25047 kPa | 1256.24
328.8 K, 15073 kPa | 1233.12
333.06 K, 40085 kPa | 1276.36
334.62 K, 30028 kPa | 1255.72
335.52 K, 1037.9 kPa | 1175.56
335.52 K, 10079 kPa | 1206.32
335.52 K, 20025 kPa | 1232.59
337.15 K, 2014.4 kPa | 1175.44
338.81 K, 3050.5 kPa | 1175.32
340.39 K, 4011 kPa | 1175.2
341.51 K, 35426 kPa | 1255.16
342.03 K, 5008.9 kPa | 1175.08
342.36 K, 25012 kPa | 1232.04
343.05 K, 15153 kPa | 1205.73
347.07 K, 39768 kPa | 1254.7
353.15 K, 11756 kPa | 1174.25
353.15 K, 21912 kPa | 1204.96
353.15 K, 32850 kPa | 1231.18

Details | surface tension liquid-gas
261.8 K | 19.87 mN/m
261.94 K | 19.66 mN/m
268.05 K | 19.19 mN/m
268.09 K | 19.01 mN/m
273.05 K | 18.56 mN/m and 18.41 mN/m
277.76 K | 18.08 mN/m and 17.98 mN/m
282.88 K | 17.57 mN/m
282.98 K | 17.42 mN/m
288.32 K | 17.05 mN/m
288.35 K | 16.88 mN/m
293.51 K | 16.3 mN/m
293.54 K | 16.29 mN/m
297.79 K | 15.81 mN/m
297.86 K | 15.92 mN/m
302.48 K | 15.41 mN/m
302.55 K | 15.38 mN/m
308.11 K | 14.66 mN/m
308.31 K | 14.65 mN/m

COC(F)(F)C(F)(F)C(F)(F)F [heptafluoropropyl methyl ether]
Details | mass density [kg/m3]
209.16 K, 1147.7 kPa | 1630.6
215.36 K, 9581.3 kPa | 1629.81
219.53 K, 15297 kPa | 1629.29
220.04 K, 1236.5 kPa | 1604.5
223 K, 19918 kPa | 1628.87
223.03 K, 4963.4 kPa | 1604.13
227.03 K, 9963.9 kPa | 1603.65
231.15 K, 15085 kPa | 1603.16
231.6 K, 910.5 kPa | 1576.15
232.59 K, 2030.9 kPa | 1576.04
233.44 K, 3013 kPa | 1575.94
234.26 K, 3948.9 kPa | 1575.84
235.13 K, 20005 kPa | 1602.69
235.25 K, 5067.3 kPa | 1575.72
239.34 K, 25172 kPa | 1602.2
239.68 K, 10109 kPa | 1575.21
243.19 K, 29834 kPa | 1601.75
244.03 K, 15038 kPa | 1574.72
244.63 K, 1009.9 kPa | 1544.86
245.59 K, 1998.3 kPa | 1544.75
246.51 K, 2962.6 kPa | 1544.65
247.39 K, 3900.7 kPa | 1544.55
247.5 K, 35024 kPa | 1601.26
248.47 K, 20022 kPa | 1574.22
248.53 K, 5046.1 kPa | 1544.43
251.72 K, 40059 kPa | 1600.78
252.99 K, 25061 kPa | 1573.71
253.35 K, 10014 kPa | 1543.89
257.43 K, 29986 kPa | 1573.22
258.16 K, 14929 kPa | 1543.37
258.74 K, 1019.7 kPa | 1509.93
259.75 K, 1914.3 kPa | 1509.82
260.88 K, 2987.6 kPa | 1509.7
261.92 K, 3946.9 kPa | 1509.59
262 K, 34997 kPa | 1572.72
263.02 K, 19886 kPa | 1542.85
263.07 K, 5031.9 kPa | 1509.47
266.61 K, 40003 kPa | 1572.21
267.97 K, 24863 kPa | 1542.32
268.54 K, 10046 kPa | 1508.89
273.04 K, 29941 kPa | 1541.78
273.95 K, 14959 kPa | 1508.34
274.52 K, 994.4 kPa | 1470.55
275.72 K, 1967.2 kPa | 1470.43
276.99 K, 3007.5 kPa | 1470.3
278.09 K, 34925 kPa | 1541.25
278.24 K, 4016.2 kPa | 1470.18
279.44 K, 4996 kPa | 1470.06
279.44 K, 19959 kPa | 1507.77
283.23 K, 39964 kPa | 1540.71
284.96 K, 24913 kPa | 1507.21
285.69 K, 10030 kPa | 1469.44
285.95 K, 1083.6 kPa | 1440.86
287.33 K, 2026 kPa | 1440.73
288.68 K, 3021.9 kPa | 1440.6
289.89 K, 3919.7 kPa | 1440.48
290.57 K, 29908 kPa | 1506.65
291 K, 4729.9 kPa | 1440.38
291.9 K, 15010 kPa | 1468.83
296.23 K, 34913 kPa | 1506.08
298.15 K, 9994.4 kPa | 1439.7
298.15 K, 19997 kPa | 1468.22
298.45 K, 987.1 kPa | 1407.52
300.45 K, 2316.3 kPa | 1407.33
301.51 K, 3015.6 kPa | 1407.24
302.03 K, 40008 kPa | 1505.49
303.04 K, 4032 kPa | 1407.09
304.36 K, 4907.1 kPa | 1406.97
304.43 K, 24980 kPa | 1467.62
305.45 K, 15319 kPa | 1439.01
310.78 K, 29953 kPa | 1467.01
312.11 K, 10022 kPa | 1406.27
312.12 K, 1009.6 kPa | 1369.41
312.57 K, 20469 kPa | 1438.34
313.79 K, 1997.3 kPa | 1369.27
315.49 K, 2985.1 kPa | 1369.12
317.16 K, 3966.3 kPa | 1368.97
317.19 K, 34932 kPa | 1466.39
318.7 K, 4864.6 kPa | 1368.84
319.58 K, 25523 kPa | 1437.69
319.65 K, 14861 kPa | 1405.59
323.78 K, 40025 kPa | 1465.77
326.44 K, 30424 kPa | 1437.05
327.49 K, 1098.2 kPa | 1324.67
327.49 K, 10016 kPa | 1368.08
327.51 K, 19990 kPa | 1404.89
329.49 K, 2043 kPa | 1324.5
331.48 K, 3053.3 kPa | 1324.34
333.43 K, 4045.4 kPa | 1324.18
333.47 K, 35408 kPa | 1436.41
335.24 K, 25016 kPa | 1404.19
335.37 K, 5030.2 kPa | 1324.02
335.65 K, 14779 kPa | 1367.37
340.74 K, 40506 kPa | 1435.74
342.96 K, 29980 kPa | 1403.51
344.67 K, 20018 kPa | 1366.6
345.22 K, 10048 kPa | 1323.21
353.15 K, 14072 kPa | 1322.56
353.15 K, 24901 kPa | 1365.87
353.15 K, 36576 kPa | 1402.6

Details | surface tension liquid-gas [mN/m]
261.81 K | 15.99
261.89 K | 15.89
267.86 K | 15.39
267.87 K | 15.34
272.93 K | 14.86
272.95 K | 14.85
277.8 K | 14.35
277.82 K | 14.4
282.63 K | 13.7
282.77 K | 13.93
287.73 K | 13.15
287.83 K | 13.47
292.56 K | 13.04
297.67 K | 12.54
